# Assay results taken from patent publication US11549147B2, “Treatment of atopic dermatitis with tradipitant” (VANDA PHARMACEUTICALS INC., priority 2017, dated 2023).
# Assays:
# [1] = system: chronic pruritus in patients with atopic dermatitis; test: Phase II proof of concept study VP-VLY-686-2101: tradipitant monotherapy vs placebo (Example 1); assay type: in vivo, human; design: key to VAS Worst change / VAS Worst change, Diff / VAS Average change / VAS Average change, Diff: VAS points in mm; VRS change / VRS change, Diff / FBI / FBI, Diff / CGIC / CGIC, Diff: scale not given here; settings: for CGIC / DLQI change / FBI / SCORAD change / VAS Average change / VAS Worst change / VRS change: 100 mg qd evening; for CGIC, Diff / DLQI change, Diff / FBI, Diff / SCORAD change, Diff / VAS Average change, Diff / VAS Worst change, Diff / VRS change, Diff: Diff tradipitant vs placebo
# Description: A phase II proof of concept clinical study (Study ID VP-VLY-686-2101, “Proof of Concept of VLY-686 in Subjects With Treatment-Resistant Pruritus Associated With Atopic Dermatitis”) is conducted, investigating the safety and efficacy of tradipitant as a monotherapy in the treatment of chronic pruritus in patients with atopic dermatitis.
# In the study, patients with a Visual Analog Scale (VAS) score of greater than 70 mm during one of the two days preceding inclusion into the study are randomized to receive orally either 100 mg of tradipitant (n=34) or placebo (n=35) once a day in the evening. In the tradipitant arm of the study, tradipitant is orally administered to patients in capsules with standard excipients in an amount of 100 mg in the evening. Clinical assessments are made after 3 or 4 weeks of daily treatment, or at both 3 weeks and 4 weeks, each assessment being done in the morning of the day after last treatment or in the afternoon of the day after last treatment. The tradipitant is administered in an immediate release form comprising tradipitant and pharmaceutically acceptable excipients in a capsule. The tradipitant particle size is approximately: D10: <5 um, D50: <10 um, and D90: <25 um, wherein Dio means that 10% of the particles are of the indicated mean particle size, D50 means that 50% of the particles are of the indicated mean particle size, and D90 means that 90% of the particles are of the indicated mean particle size.
# Baseline VAS scores are 76.1 and 77.2 for the tradipitant and placebo arms respectively. Efficacy is evaluated through a number of clinical research instruments. In addition, at the time of efficacy evaluation blood samples are collected for PK analysis in order to determine the plasma levels of tradipitant.
# [2] = Plasma concentration levels of tradipitant in healthy subjects (Example 2); assay type: in vivo, human
# Description: A study is conducted in which healthy subject participants are orally administered 85 mg tradipitant on study day 3, and then 85 mg tradipitant Q12H on study days 4-16. Plasma concentration levels of tradipitant are measured on each of day 3, day 7, and day 11.
# This study illustrates that administration of 85 mg tradipitant qd (on day 3) produces an average plasma concentration over hours 0-12 that is about 50% of the plasma concentration observed in the PM group in Example 1. On days 7 and 11, the average plasma concentration over hours 0-12 following administration of 85 mg bid (specifically, Q12H) tradipitant is about 150% of the plasma concentration observed in the PM group in Example 1. The average plasma concentration over hours 0-12 at each point is determined by dividing the AUC for hours 0-12 (in (hr.)×(ng/mL)) by 12 hours.
smiles,measurement,setting,value
O=C(c1ccccc1Cl)c1cccnc1-c1nnn(Cc2cc(C(F)(F)F)cc(C(F)(F)F)c2)c1-c1ccncc1 [Tradipitant],adverse event profile,[1]; 100 mg qd,mild and similar to placebo
same,tolerability,[1]; 100 mg qd,well-tolerated
same,"endpoints corresponding to the underlying disease (SKINDEX, SCORAD objective, EASI and DLQI) vs placebo","[1]; 100 mg qd, 4-week study",do not show any significant difference from placebo
same,CGIC,"[1]; AM group, 3-4 weeks",2.46
same,DLQI change,"[1]; AM group, 3-4 weeks",−2.52
same,FBI,"[1]; AM group, 3-4 weeks",1.47
same,SCORAD change,"[1]; AM group, 3-4 weeks",−9.58
same,VAS Average change,"[1]; AM group, 3-4 weeks",−54
same,VAS Worst change,"[1]; AM group, 3-4 weeks",−47.9
same,VRS change,"[1]; AM group, 3-4 weeks",−1.46
same,"CGIC, Diff",[1]; AM group,−1.15
same,"DLQI change, Diff",[1]; AM group,0.35
same,"FBI, Diff",[1]; AM group,0.74
same,"SCORAD change, Diff",[1]; AM group,−5.23
same,"VAS Average change, Diff",[1]; AM group,−23.7
same,"VAS Worst change, Diff",[1]; AM group,−21.9
same,"VRS change, Diff",[1]; AM group,−0.79
same,"CGIC, Diff",[1]; PM group,0.19
same,"DLQI change, Diff",[1]; PM group,−1.89
same,"FBI, Diff",[1]; PM group,−0.39
same,"SCORAD change, Diff",[1]; PM group,0.88
same,"VAS Average change, Diff",[1]; PM group,5.82
same,"VAS Worst change, Diff",[1]; PM group,8.99
same,"VRS change, Diff",[1]; PM group,−0.13
same,CGIC,"[1]; PM group, 3-4 weeks",2.47
same,DLQI change,"[1]; PM group, 3-4 weeks",−5.45
same,FBI,"[1]; PM group, 3-4 weeks",1.01
same,SCORAD change,"[1]; PM group, 3-4 weeks",−6.29
same,VAS Average change,"[1]; PM group, 3-4 weeks",−28.8
same,VAS Worst change,"[1]; PM group, 3-4 weeks",−32.3
same,VRS change,"[1]; PM group, 3-4 weeks",−1.29
same,improvement from baseline on 100 mm unit Visual Analog Scale (VAS) for itch,"[1]; all patients, 100 mg once a day in the evening, 3-4 weeks",40.5 mm
same,average plasma concentration over hours 0-12 relative to the PM group in Example 1,"[2]; 85 mg bid (Q12H), days 7 and 11",about 150%
same,average plasma concentration over hours 0-12 relative to the PM group in Example 1,"[2]; 85 mg qd, day 3",about 50%
